Laboratory results as given in US20200060276A1, “THIAZOLE COMPOUND AND HERBICIDE” (OAT Agrio Co., Ltd., priority 2017, published 2020).

Key:
Format in all cases: in vivo
[1] = system: Scirpus juncoides; experiment: Test for Herbicidal Effect in Flooding Treatment (#1), SCIJU; conditions: flooding treatment at seeding, dose 2 kg/ha, visual observation on day 21
How it was run: (§1)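 Flooded soil in cups was seeded 24 h after flooding, then treated with compound in acetone diluted with Tween 80-containing water, dropped onto the water surface at 2 kg/ha. After growth in a glasshouse, growth inhibition was scored visually on day 21 on a 0 (<10%) to 5 (≥90% or complete withering) scale.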

[2] = system: Echinochloa crus-galli (L.) P. Beauv. var. formosensis Ohwi; experiment: Test for Herbicidal Effect in Flooding Treatment (#2), ECHDG at 2-2.5 leaf stage; conditions: flooding treatment at 2-2.5 leaf stage, dose 0.2 kg/ha, visual observation on day 21
How it was run: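 Scoring is a visual 0–5 scale of growth inhibition (0 below 10%, 5 at 90% or more or full withering), taken 21 days after treatment in a glasshouse. Dose was 0.2 kg/ha, applied as acetone/Tween 80 aqueous solution onto flooded soil once seedlings reached the 2–2.5 leaf stage.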

[3] = system: Monochoria vaginalis; experiment: Test for Herbicidal Effect in Flooding Treatment (#1), MONVA; conditions: flooding treatment at seeding, dose 2 kg/ha, visual observation on day 21
How it was run: as §1

[4] = system: Echinochloa crus-galli (L.) P. Beauv. var. formosensis Ohwi; experiment: Test for Herbicidal Effect in Flooding Treatment (#1), ECHDG; conditions: flooding treatment at seeding, dose 2 kg/ha, visual observation on day 21
How it was run: as §1

Row | Compound | SCIJU #1 herbicidal effect (growth inhibition grade) [1] | ECHDG (2-2.5L) #2 herbicidal effect (growth inhibition grade) [2] | MONVA #1 herbicidal effect (growth inhibition grade) [3] | ECHDG #1 herbicidal effect (growth inhibition grade) [4]
1 | [2H]C([2H])(c1c(Cl)ccc(OC)c1F)S(=O)(=O)c1ncc(Cl)s1 [Compound 1C-136] | 5 (Growth inhibition effect is equal to or greater than 90%, or complete withering is achieved) | 5 (Growth inhibition effect is equal to or greater than 90%, or complete withering is achieved) | 5 (Growth inhibition effect is equal to or greater than 90%, or complete withering is achieved) | 5 (Growth inhibition effect is equal to or greater than 90%, or complete withering is achieved)
2 | [2H]C([2H])(c1c(Cl)ccc(OC)c1Cl)S(=O)(=O)c1ncc(Cl)s1 [Compound 1C-137] | 5 (Growth inhibition effect is equal to or greater than 90%, or complete withering is achieved) | 5 (Growth inhibition effect is equal to or greater than 90%, or complete withering is achieved) | 5 (Growth inhibition effect is equal to or greater than 90%, or complete withering is achieved) | 5 (Growth inhibition effect is equal to or greater than 90%, or complete withering is achieved)
3 | CCOc1ccc(Cl)cc1C(F)(F)S(=O)(=O)c1ncc(Cl)s1 [Compound 1C-138] | 5 (Growth inhibition effect is equal to or greater than 90%, or complete withering is achieved) | 3 (Growth inhibition effect equal to or greater than 50%, and less than 70%) | 5 (Growth inhibition effect is equal to or greater than 90%, or complete withering is achieved) | 5 (Growth inhibition effect is equal to or greater than 90%, or complete withering is achieved)
4 | CC(C)(c1c(F)cccc1OCC(F)F)S(=O)(=O)c1ncc(Cl)s1 [Compound 1C-143] | 5 (Growth inhibition effect is equal to or greater than 90%, or complete withering is achieved) | 4 (Growth inhibition effect is equal to or greater than 70%, and less than 90%) | 5 (Growth inhibition effect is equal to or greater than 90%, or complete withering is achieved) | 5 (Growth inhibition effect is equal to or greater than 90%, or complete withering is achieved)
5 | CC(=O)C(C(C)=O)(c1c(F)cccc1OC(F)F)S(=O)(=O)c1ncc(Cl)s1 [Compound 1C-147] | 5 (Growth inhibition effect is equal to or greater than 90%, or complete withering is achieved) | 5 (Growth inhibition effect is equal to or greater than 90%, or complete withering is achieved) | 5 (Growth inhibition effect is equal to or greater than 90%, or complete withering is achieved) | 5 (Growth inhibition effect is equal to or greater than 90%, or complete withering is achieved)
6 | CC(c1c(F)cccc1OCC(F)(F)C(F)F)S(=O)(=O)c1ncc(Cl)s1 (centres unmarked) [Compound 1C-148] | 5 (Growth inhibition effect is equal to or greater than 90%, or complete withering is achieved) | 5 (Growth inhibition effect is equal to or greater than 90%, or complete withering is achieved) | 5 (Growth inhibition effect is equal to or greater than 90%, or complete withering is achieved) | 5 (Growth inhibition effect is equal to or greater than 90%, or complete withering is achieved)
7 | O=S(=O)(Cc1c(F)cccc1OC(F)F)c1ncc(Br)s1 [Compound 1C-153] | 5 (Growth inhibition effect is equal to or greater than 90%, or complete withering is achieved) | 5 (Growth inhibition effect is equal to or greater than 90%, or complete withering is achieved) | 5 (Growth inhibition effect is equal to or greater than 90%, or complete withering is achieved) | 5 (Growth inhibition effect is equal to or greater than 90%, or complete withering is achieved)
8 | O=S(=O)(Cc1c(Cl)cccc1OC(F)F)c1ncc(Br)s1 [Compound 1C-154] | 5 (Growth inhibition effect is equal to or greater than 90%, or complete withering is achieved) | 5 (Growth inhibition effect is equal to or greater than 90%, or complete withering is achieved) | 5 (Growth inhibition effect is equal to or greater than 90%, or complete withering is achieved) | 5 (Growth inhibition effect is equal to or greater than 90%, or complete withering is achieved)
9 | O=S(=O)(Cc1c(F)ccc(F)c1OC(F)F)c1ncc(Br)s1 [Compound 1C-155] | 5 (Growth inhibition effect is equal to or greater than 90%, or complete withering is achieved) | 5 (Growth inhibition effect is equal to or greater than 90%, or complete withering is achieved) | 5 (Growth inhibition effect is equal to or greater than 90%, or complete withering is achieved) | 5 (Growth inhibition effect is equal to or greater than 90%, or complete withering is achieved)
10 | O=S(=O)(Cc1c(F)cc(F)cc1OC(F)F)c1ncc(Br)s1 [Compound 1C-156] | 5 (Growth inhibition effect is equal to or greater than 90%, or complete withering is achieved) | 5 (Growth inhibition effect is equal to or greater than 90%, or complete withering is achieved) | 5 (Growth inhibition effect is equal to or greater than 90%, or complete withering is achieved) | 5 (Growth inhibition effect is equal to or greater than 90%, or complete withering is achieved)
11 | O=S(=O)(Cc1c(OC(F)F)ccc(Cl)c1F)c1ncc(Br)s1 [Compound 1C-157] | 5 (Growth inhibition effect is equal to or greater than 90%, or complete withering is achieved) | 5 (Growth inhibition effect is equal to or greater than 90%, or complete withering is achieved) | 5 (Growth inhibition effect is equal to or greater than 90%, or complete withering is achieved) | 5 (Growth inhibition effect is equal to or greater than 90%, or complete withering is achieved)
12 | O=S(=O)(Cc1c(OCC(F)(F)F)cccc1C(F)(F)F)c1ncc(Br)s1 [Compound 1C-162] | 5 (Growth inhibition effect is equal to or greater than 90%, or complete withering is achieved) | 5 (Growth inhibition effect is equal to or greater than 90%, or complete withering is achieved) | 5 (Growth inhibition effect is equal to or greater than 90%, or complete withering is achieved) | 5 (Growth inhibition effect is equal to or greater than 90%, or complete withering is achieved)
13 | O=S(=O)(Cc1c(F)cccc1OCC(F)(F)C(F)F)c1ncc(Br)s1 [Compound 1C-164] | 5 (Growth inhibition effect is equal to or greater than 90%, or complete withering is achieved) | 5 (Growth inhibition effect is equal to or greater than 90%, or complete withering is achieved) | 5 (Growth inhibition effect is equal to or greater than 90%, or complete withering is achieved) | 5 (Growth inhibition effect is equal to or greater than 90%, or complete withering is achieved)
14 | CC(c1c(F)cccc1OCC(F)(F)C(F)F)S(=O)(=O)c1ncc(Br)s1 (centres unmarked) [Compound 1C-165] | 5 (Growth inhibition effect is equal to or greater than 90%, or complete withering is achieved) | 3 (Growth inhibition effect equal to or greater than 50%, and less than 70%) | 5 (Growth inhibition effect is equal to or greater than 90%, or complete withering is achieved) | 5 (Growth inhibition effect is equal to or greater than 90%, or complete withering is achieved)
